Assay results reported in EP4737449A1 (Changchun Genescience Pharmaceutical Co., Ltd., priority 2023, dated 2025).

What was measured:
p53-Y220C mutant protein = molecular target: T1, p53-Y220C mutant protein (Homo sapiens, UniProt P04637, Y220C); assay: In vitro DNA binding activity assay (TR-FRET); type: biochemical; details: concentration required to increase the binding activity of protein to DNA by 50%
T1 construct: The recombinant Y220C p53 DBD protein with his-tag
How it was run: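 His-tagged Y220C p53 DBD was equilibrated with compound 60 min at room temperature, then biotin-DNA, anti-6His-Eu and streptavidin-d2 were added and incubated overnight in the dark. TR-FRET 665/615 nm ratio, background-corrected, was expressed as % activity versus vehicle; SC150 is the concentration raising DNA binding by 50%.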

[1] = Caco-2 cell permeability test; type: in vitro ADME; details: human, Caco-2, 10 µM compound; for efflux ratio at 120 min, 10 µM / Papp A→B at 120 min, 10 µM / Papp B→A at 120 min, 10 µM: pH 7.4; for efflux ratio at 120 min, 10 µM: read-out: Efflux rate
Method: • 1) Cell culture: The resuscitated Caco-2 cells were cultured in DMEM culture solution containing 10% FBS, 1% Penicillin-Streptomycin Liquid (100X) and 1% NEAA in an incubator at 37 °C with 5% CO2. The culture medium was replaced every 2-3 days and subculture was carried out when the cell confluence reached about 80%. • 2) Preparation of transport buffer: Transport buffer (pH 7.4) was prepared by adding 5 mL of 1M HEPES to 500 mL of HBSS (with or without BSA) to a final concentration of 10 mM HEPES (with or without BSA). • 3) Before the start of the transport experiment (day 14-28), the culture medium was taken out from the cell culture plate, the plate was washed twice with preheated HBSS buffer (10 mM HEPES, pH 7.4), and 100 µL of HBSS buffer was added into each well. After incubation at 37°C for 30 min, the TEER values were measured by a cell resistance meter (Millicell-ERS2) to confirm the integrity and compactness of the monolayer cells. • 4) The HBSS buffer was discarded, the upper plate containing the cell monolayer membrane was transferred to the corresponding receiving plate, the test compound solution or buffer was added to the top (A side) and the basal side (B side), respectively, the cell plate was placed in the corresponding 96-well receiving plate, and grouping was carried out according to Table 6. The prepared positive control drug, test compound or HBSS (with or without BSA) buffer were added to the A side or B side of the Transwell cell plate filter membrane, and the cell plate was incubated at 37°C. Table 6. Compound grouping scheme
• 1) After incubation for 5 min, a sample was taken from the A and B administration sides, 8 µL each side, and added into 72 µL of transport buffer (diluted 10 times) to serve as T0 of the initial administration solution. • 2) After incubation for 120 min, the samples from both ends of the Transwell cell plate filter membrane were collected, and 80 µL of sample solution was taken from the receiving side to serve as the sample at the receiving side after transport, and 8 µL of sample was taken from the administration side and added into 72 µL of transport buffer to serve as the sample at the administration side after transport. • 3) After collecting the samples from both sides, the plate was gently tapped to discard the remaining solution in the cell plate, the cell plate was rinsed with the transport buffer, 100 µL of acetonitrile solution containing internal standard working solution was added to each well to lyse the cells, the system was pipetted up and down to well mix it, and then 80 µL of cell lysate from each well was measured by pipetting to serve as the sample after cell lysis. • 4) After collecting all samples in the transport system (T0 sample, receiving side sample, and donor side sample), 160 µL of IS/ACN solution was added to each well, 80 µL of IS/ACN solution was added to the collected lysate sample, and then the sample was sealed. • 5) The sample plate was shaken for 10 min, and stored at -20°C before LC-MS/MS analysis. • 6) A standard curve was plotted, and then 8 µL of standard curve solution was taken and mixed with 72 µL of transport buffer and 160 µL of IS/ACN to serve as the standard curve sample. • 7) All the above samples were centrifuged at 6000 RPM for 10 min, 100 µL of supernatant was taken, 100 µL of H2O was added, and the mixture was fully mixed, and analyzed by LC-MS/MS.

SMILES | SC150 (p53-Y220C mutant protein) [nM] | efflux ratio at 120 min, 10 µM [1] | Papp A→B at 2 h ([1]; 120 min) [×10⁻⁶ cm/s] | Papp B→A at 2 h ([1]; 120 min) [×10⁻⁶ cm/s] | Papp A→B at 120 min, 10 µM ([1]; 120 min) [×10⁻⁶ cm/s] | Papp B→A at 120 min, 10 µM ([1]; 120 min) [×10⁻⁶ cm/s]
CCn1ncc(C(=O)NCC#Cc2nn3c(N[C@@H]4CCN(C)C[C@@H]4F)cccc3c2CC(F)(F)F)c1N [Compound 261, 5-amino-1-ethyl-N-[3-(7-{[(3S,4R)-3-fluoro-1-methylpiperidin-4-yl]amino}-3-(2,2,2-trifluoroethyl)pyrazolo[1,5-a]pyridin-2-yl)prop-2-yn-1-yl]-1H-pyrazole-4-carboxamide] | 6 |  |  |  |  | 
CN1CC[C@@H](Nc2cccc3c(CC(F)(F)F)c(C#CCNC(=O)c4cnn(C(C)(C)C)c4N)nn23)[C@@H](F)C1 [Compound 047] | 7 | 1.51 | 5.18 | 7.8 |  | 
CN1CC[C@@H](Nc2cccc3c(CC(F)(F)F)c(C#CCNC(=O)c4cnn(C(C)(C)C)c4)nn23)[C@@H](F)C1 [Compound 001, 1-tert-butyl-N-[3-(7-{[(3S,4R)-3-fluoro-1-methylpiperidin-4-yl]amino}-3-(2,2,2-trifluoroethyl)pyrazolo[1,5-a]pyridin-2-yl)prop-2-yn-1-yl]-1H-pyrazole-4-carboxamide] | 10 | 1.48 |  |  | 4.39 | 6.5
CNC(=O)c1ccc(NCC#Cc2cc3c(N[C@@H]4CCN(C)C[C@@H]4F)cccc3n2CC(F)(F)F)c(OC)c1 [Control compound, reference compound] | 14 | 4.16 |  |  | 4.68 | 19.4
